In general, DC50 refers to the concentration giving 50% degradation. By Dmax is commonly meant the greatest extent of degradation seen. As usually defined, the IC50 is the concentration needed to halve the response being measured.

The target of one experiment is ER in T47D cells (Homo sapiens (Human), UniProt P03372). Description: In-cell Western (ICW) ER degradation assay in T47D cells. The experiment is classed as cell-based. Conditions: for DC50: ER degradation. The text has this:
In-cell Western (ICW) assays in MCF-7 and T47D cell lines.
Day 3: After 16 hrs of compounds treatment, cells were fixed by 4% PFA and permeabilized with elution buffer (0.1% Triton X-100 in 1% PBS Solution). Subsequently, cells were blocked with Intercept (PBS) Blocking Buffer (Li-COR, Odyssey Blocking Buffer), and were stained with ER (1:500, Cell signaling) primary antibody for overnight at cold room.
Day 4: Remove the buffer, add IRDye 800CW Goat anti-Rabbit IgG Secondary Antibody (1:2000) and CellTag 700 Stain (1:500) in Intercept (PBS) Blocking Buffer. Finally, cell plate is placed in incubator to dry. Image and signal were captured on Odyssey® DLx Imaging System.

Another experiment concerns the target ER in MCF-7 cells (Homo sapiens (Human), UniProt P03372). The experiment is described as follows: In-cell Western (ICW) ER degradation assay in MCF-7 cells. The format is cell-based. Conditions: for DC50: MCF-7, ER degradation, read-out: MCF7 DC50; for MCF7 Dmax: MCF-7, maximal ER degradation.
Another experiment addresses CRBN/DDB1 (Homo sapiens (Human), UniProt Q96SW2). The experiment is classed as binding. Conditions: His tagged CRBN+DDB1, Cy5-labeled Thalidomide probe, one hour; read-out: CRBN HTRF IC50. On the procedure:
The binding potency was determined using HTRF assay technology (Perkin Elmer). Compounds were serially diluted in DMSO and […] volume was transferred to white 384-well plate.
(In general: TR-FRET usually uses a lanthanide donor and a delayed reading to cut background.)

Where [1] appears, read: MCF7, read-out: MCF7 Dmax, MCF-7, maximal ER degradation, 16 hrs treatment.
The mark [2] stands for this setting: maximal ER degradation, 16 hrs treatment, read-out: T47D Dmax.
The mark [3] stands for this setting: maximal ER degradation, 16 hrs treatment.
Setting [4] is: MCF7, MCF-7, maximal ER degradation, 16 hrs treatment, read-out: MCF7 Dmax.

Read-outs that look alike come from different tables or passages of the source.

Sequence of CRBN/DDB1 (Q96SW2 whole entry, species assumed): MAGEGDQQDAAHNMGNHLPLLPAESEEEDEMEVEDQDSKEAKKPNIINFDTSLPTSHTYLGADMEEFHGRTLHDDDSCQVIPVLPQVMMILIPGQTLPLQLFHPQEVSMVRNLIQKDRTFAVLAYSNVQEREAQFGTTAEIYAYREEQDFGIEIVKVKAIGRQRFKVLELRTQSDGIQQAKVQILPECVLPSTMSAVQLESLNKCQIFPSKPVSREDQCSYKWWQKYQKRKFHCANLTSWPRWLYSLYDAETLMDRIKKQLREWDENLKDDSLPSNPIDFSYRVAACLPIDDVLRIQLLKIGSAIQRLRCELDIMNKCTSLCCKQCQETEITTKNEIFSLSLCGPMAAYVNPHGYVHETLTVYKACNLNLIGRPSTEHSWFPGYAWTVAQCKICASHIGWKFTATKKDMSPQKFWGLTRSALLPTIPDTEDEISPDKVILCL
Sequence of CRBN/DDB1 (Q16531 whole entry partner, species assumed): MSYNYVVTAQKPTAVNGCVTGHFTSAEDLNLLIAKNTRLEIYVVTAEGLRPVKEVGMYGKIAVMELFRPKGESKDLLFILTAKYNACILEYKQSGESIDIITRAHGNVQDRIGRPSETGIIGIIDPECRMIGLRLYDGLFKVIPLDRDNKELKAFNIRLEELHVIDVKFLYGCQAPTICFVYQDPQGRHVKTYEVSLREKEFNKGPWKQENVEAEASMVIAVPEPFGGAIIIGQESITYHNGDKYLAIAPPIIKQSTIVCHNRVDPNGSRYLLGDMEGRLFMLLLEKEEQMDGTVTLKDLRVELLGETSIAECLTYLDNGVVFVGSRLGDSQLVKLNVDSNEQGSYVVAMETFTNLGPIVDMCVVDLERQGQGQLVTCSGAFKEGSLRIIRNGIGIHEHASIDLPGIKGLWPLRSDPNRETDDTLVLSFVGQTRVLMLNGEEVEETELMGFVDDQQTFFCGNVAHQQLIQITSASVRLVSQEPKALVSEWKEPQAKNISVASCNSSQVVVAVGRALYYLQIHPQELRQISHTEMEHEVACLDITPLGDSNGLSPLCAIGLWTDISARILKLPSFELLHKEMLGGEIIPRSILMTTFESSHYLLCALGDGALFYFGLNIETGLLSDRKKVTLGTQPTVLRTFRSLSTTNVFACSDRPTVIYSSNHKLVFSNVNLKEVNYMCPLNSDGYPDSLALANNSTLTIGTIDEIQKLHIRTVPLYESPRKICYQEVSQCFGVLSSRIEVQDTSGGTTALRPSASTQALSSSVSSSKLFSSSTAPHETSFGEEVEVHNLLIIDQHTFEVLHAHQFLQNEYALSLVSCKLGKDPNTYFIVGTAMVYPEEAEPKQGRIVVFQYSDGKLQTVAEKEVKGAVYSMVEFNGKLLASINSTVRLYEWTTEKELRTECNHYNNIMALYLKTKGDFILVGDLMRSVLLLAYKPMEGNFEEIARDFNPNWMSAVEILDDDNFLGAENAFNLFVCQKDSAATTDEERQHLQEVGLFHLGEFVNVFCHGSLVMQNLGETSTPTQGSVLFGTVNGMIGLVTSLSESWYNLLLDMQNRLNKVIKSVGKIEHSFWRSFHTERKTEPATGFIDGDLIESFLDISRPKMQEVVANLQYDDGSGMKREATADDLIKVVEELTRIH
Sequence of ER in MCF-7 cells (P03372 whole entry): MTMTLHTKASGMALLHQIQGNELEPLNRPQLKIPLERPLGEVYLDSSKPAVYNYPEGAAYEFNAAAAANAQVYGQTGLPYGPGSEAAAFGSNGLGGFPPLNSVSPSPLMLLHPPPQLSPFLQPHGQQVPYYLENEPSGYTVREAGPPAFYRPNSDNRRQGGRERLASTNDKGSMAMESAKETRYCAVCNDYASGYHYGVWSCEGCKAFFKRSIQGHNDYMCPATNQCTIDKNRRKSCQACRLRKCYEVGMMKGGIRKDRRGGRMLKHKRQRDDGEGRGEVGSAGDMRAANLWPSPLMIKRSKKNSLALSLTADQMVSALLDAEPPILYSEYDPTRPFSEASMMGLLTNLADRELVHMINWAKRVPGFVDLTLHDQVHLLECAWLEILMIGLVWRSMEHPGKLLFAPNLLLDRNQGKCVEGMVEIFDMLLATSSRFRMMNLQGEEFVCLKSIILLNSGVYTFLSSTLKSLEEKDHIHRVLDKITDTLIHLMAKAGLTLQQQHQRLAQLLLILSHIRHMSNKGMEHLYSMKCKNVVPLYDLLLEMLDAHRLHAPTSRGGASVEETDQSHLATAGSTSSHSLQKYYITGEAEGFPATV
Sequence of ER in T47D cells (P03372 whole entry): as above

In the case of `COc1cc(N2CCC(CN3CC[C@@]4(c5ccc(N[C@@H]6CCC(=O)NC6=O)cc5)C(C3)C4(F)F)CC2)ccc1[C@@H]1c2ccc(O)cc2CC[C@@H]1c1ccccc1` (mixture of isomers) [Compound A88, (3R)-3-((4-((1R)-7,7-difluoro-3-((1-(4-((1SR,2SR)-6-hydroxy-2-phenyl-1,2,3,4-tetra-hydronaphthalen-1-yl)-3-meth-oxyphenyl)piperidin-4-yl)meth-yl)-3-azabicyclo[4.1.0]heptan-6-yl)phenyl)amino)piperidine-2,6-dione], the figures for the DC50 on ER in T47D cells (16 hrs treatment) and at ER in MCF-7 cells (16 hrs treatment) were < 1 nM and 1 to 10 nM, respectively. For the same molecule, the Dmax was in the range of 25 to 50% on ER in T47D cells (read-out: T47D Dmax, T47D, maximal ER degradation, 16 hrs treatment) and 50 to 75% at ER in MCF-7 cells (setting [1]). Besides, on CRBN/DDB1, the IC50 is > 5000 nM.

On ER in T47D cells (16 hrs treatment), `COc1nc(C(=O)NC2CCC(=O)NC2=O)ccc1N1CCN(CC2CCN(c3ccc([C@@H]4c5ccc(O)cc5CC[C@@H]4c4ccccc4)cc3)CC2)CC1` (single isomer, unassigned) [Compound A1] showed a half-maximal degradation concentration (DC50) of 1 to 10 nM. On ER in T47D cells (setting [2]), the Dmax was in the range of 25 to 50%. For the same molecule, the IC50 on CRBN/DDB1 is 500 to 5000 nM.

In the case of `O=C1CC[C@H](N2Cc3c(ccc4c3OC[C@H]3CN(CC5COC6(C5)CN(c5ccc([C@@H]7c8ccc(O)cc8CC[C@@H]7c7ccccc7)cc5)C6)CCN43)C2=O)C(=O)N1` (single isomer, unassigned) [Compound A7], the DC50 at ER in T47D cells (16 hrs treatment) was < 1 nM. Further, the “T47D Dmax” value on ER in T47D cells (setting [3]) is “B (“B”: >50 and <75%)”. Further, on ER in MCF-7 cells (16 hrs treatment), the DC50 was < 1 nM; the “MCF7 Dmax” value is “B (“B”: >50 and <75%)”. Moreover, the IC50 at CRBN/DDB1 was 500 to 5000 nM.

With `COc1cc(N2CCC3(CC2)CC(CN2CCN4c5ccc6c(c5OC[C@H]4C2)CN([C@H]2CCC(=O)NC2=O)C6=O)C3)ccc1[C@@H]1c2ccc(O)cc2CC[C@@H]1c1ccccc1` (single isomer, unassigned) [Compound A10], the DC50 on ER in T47D cells (16 hrs treatment) and at ER in MCF-7 cells (16 hrs treatment) was < 1 nM throughout. Further, the Dmax on ER in T47D cells (setting [2]) and on ER in MCF-7 cells (setting [4]) was > 75% throughout. At CRBN/DDB1, the IC50 is < 50 nM.

For `O=C1CC[C@H](NC(=O)c2ccc3c(n2)OC[C@H]2CN(C[C@H]4COC5(CCN(c6ccc([C@@H]7c8ccc(O)cc8CC[C@@H]7c7ccccc7)cc6)CC5)C4)CCN32)C(=O)N1` (single isomer, unassigned) [Compound A13], the half-maximal degradation concentration (DC50) on ER in T47D cells (16 hrs treatment) and on ER in MCF-7 cells (16 hrs treatment) was 1 to 10 nM each time. In addition, the Dmax on ER in T47D cells (setting [2]) and at ER in MCF-7 cells (setting [4]) was 50 to 75% in each case. For the same molecule, on CRBN/DDB1, the IC50 fell in the range of 500 to 5000 nM.

For the molecule `O=C1CC[C@H](NC(=O)c2ccc3c(n2)OC[C@H]2CN(C[C@@H]4COC5(CCN(c6ccc([C@@H]7c8ccc(O)cc8CC[C@@H]7c7ccccc7)cc6)CC5)C4)CCN32)C(=O)N1` (single isomer, unassigned) [Compound A14], the DC50 on ER in T47D cells (16 hrs treatment) and on ER in MCF-7 cells (16 hrs treatment) was < 1 nM each time. Moreover, the Dmax on ER in T47D cells (setting [2]) and on ER in MCF-7 cells (setting [4]) was 50 to 75% each time. The IC50 on CRBN/DDB1 was in the range of 500 to 5000 nM.

Take `O=C1CC[C@H](NC(=O)c2ccc3c(n2)OC[C@H]2CN(C[C@H]4COC5(CCN(c6ccc([C@H]7c8ccc(O)cc8CC[C@H]7c7ccccc7)cc6)CC5)C4)CCN32)C(=O)N1` (single isomer, unassigned) [Compound A15]: the DC50 on ER in T47D cells (16 hrs treatment) and on ER in MCF-7 cells (16 hrs treatment) was 10 to 100 nM each time. In addition, the greatest degradation seen (Dmax) on ER in T47D cells (setting [2]) and at ER in MCF-7 cells (setting [4]) was 25 to 50% throughout. For the same molecule, on CRBN/DDB1, the half-inhibitory concentration (IC50) fell in the range of 500 to 5000 nM.

For `O=C1CC[C@H](NC(=O)c2ccc3c(n2)OC[C@H]2CN(C[C@@H]4COC5(CCN(c6ccc([C@H]7c8ccc(O)cc8CC[C@H]7c7ccccc7)cc6)CC5)C4)CCN32)C(=O)N1` (single isomer, unassigned) [Compound A16], the DC50 on ER in T47D cells (16 hrs treatment) is < 1 nM; at ER in MCF-7 cells (16 hrs treatment), 1 to 10 nM. The Dmax on ER in T47D cells (setting [2]) and at ER in MCF-7 cells (setting [4]) was 50 to 75% each time. For the same molecule, the IC50 on CRBN/DDB1 was 500 to 5000 nM.

In the case of `O=C1CC[C@H](N2Cc3cc4c(cc3C2=O)OC[C@H]2CN(C[C@H]3COC5(CCN(c6ccc([C@@H]7c8ccc(O)cc8CC[C@@H]7c7ccccc7)cc6)CC5)C3)CCN42)C(=O)N1` (single isomer, unassigned) [Compound A17], the DC50 at ER in T47D cells (16 hrs treatment) and on ER in MCF-7 cells (16 hrs treatment) was 1 to 10 nM in each case. Moreover, the greatest degradation seen (Dmax) at ER in T47D cells (setting [2]) and on ER in MCF-7 cells (setting [4]) was 25 to 50% each time. On CRBN/DDB1, the IC50 lay in the range of 500 to 5000 nM.

In the case of `O=C1CC[C@H](N2Cc3cc4c(cc3C2=O)OC[C@H]2CN(C[C@H]3COC5(CCN(c6ccc([C@H]7c8ccc(O)cc8CC[C@H]7c7ccccc7)cc6)CC5)C3)CCN42)C(=O)N1` (single isomer, unassigned) [Compound A19], the 50% degradation concentration (DC50) on ER in T47D cells (16 hrs treatment) and at ER in MCF-7 cells (16 hrs treatment) was 1 to 10 nM throughout. In addition, the Dmax on ER in T47D cells (setting [2]) and on ER in MCF-7 cells (setting [4]) was 50 to 75% throughout. Besides, the IC50 at CRBN/DDB1 lay within 50 to 500 nM.

In turn, `COc1cc([C@@H]2c3ccc(O)cc3CC[C@@H]2c2ccccc2)c(F)cc1N1CCC(CN2CCN3c4ccc5c(c4OC[C@H]3C2)CN([C@H]2CCC(=O)NC2=O)C5=O)CC1` (single isomer, unassigned) [Compound A98] displayed a DC50 at ER in T47D cells (16 hrs treatment) of 10 to 100 nM. The “T47D Dmax” value at ER in T47D cells (setting [3]) is recorded as “C (“C”: 25-50%)”. In addition, the IC50 at CRBN/DDB1 fell in the range of 50 to 500 nM.

The molecule `COc1cc(C2c3ccc(O)cc3CCC2c2ccccc2)c(F)cc1N1CCC(CN2CCN3c4ccc5c(c4OC[C@H]3C2)CN([C@H]2CCC(=O)NC2=O)C5=O)CC1` (stereo in doubt) [Compound A97, (S)-3-((R)-7-((1-(5-fluoro-4-((1R,2R)-6-hydroxy-2-phenyl-1,2,3,4-tetrahydronaphthalen-1-yl)-2-methoxyphenyl)piperidin-4-yl)methyl)-1-oxo-1,3,5,5a,6,7,8,9-octahydro-2H-pyrazino[1′,2′: 4,5][1,4]oxazino[2,3-e]isoindol-2-yl)piperidine-2,6-dione] showed a DC50 at ER in T47D cells (16 hrs treatment) of 1 to 10 nM. Further, at ER in T47D cells (setting [3]), the “T47D Dmax” value is “A (“A”: >=75%)”. Besides, at CRBN/DDB1, the IC50 lay in the range of 50 to 500 nM.

As for `O=C1CC[C@H](N2Cc3c(ccc4c3OC[C@H]3CN(CC5CC6COCC(C5)N6c5ccc([C@@H]6c7ccc(O)cc7CC[C@@H]6c6ccccc6)cc5)CCN43)C2=O)C(=O)N1` (stereo partly drawn) [Compound A83, (3S)-3-((5aR)-7-((9-(4-((1R, 2S)-6-hydroxy-2-phenyl-1,2,3,4-tetrahydronaphthalen-1-yl)phenyl)-3-oxa-9-azabi-cyclo[3.3.1]nonan-7-yl)meth-yl)-1-oxo-1,3,5,5a,6,7,8,9-octa-hydro-2H-pyrazino[1′,2′:4,5] [1,4]oxazino[2,3-e]isoindol-2-yl)piperidine-2,6-dione], at ER in T47D cells (16 hrs treatment), the DC50 was < 1 nM. On ER in T47D cells (setting [3]), the “T47D Dmax” value is “B (“B”: >50 and <75%)”. Further, the IC50 at CRBN/DDB1 was 50 to 500 nM.

For the molecule `O=C1CC[C@H](N2Cc3cc4c(cc3C2=O)OCC42CCN(CC3CC4(CCN(c5ccc([C@H]6c7ccc(O)cc7CC[C@H]6c6ccccc6)cn5)CC4)C3)CC2)C(=O)N1` [Compound A125, (S)-3-(1′-((7-(5-((1R,2R)-6-hydroxy-2-phenyl-1,2,3,4-tetra-hydronaphthalen-1-yl)pyridin-2-yl)-7-azaspiro[3.5]nonan-2-yl)methyl)-7-oxo-5,7-dihydro-2H,6H-spiro[furo[2,3-f]iso-indole-3,4′-piperidin]-6-yl)-piperidine-2,6-dionc], on ER in T47D cells (16 hrs treatment), the DC50 is 10 to 100 nM. Besides, the “T47D Dmax” value at ER in T47D cells (setting [3]) is “B (“B”: >50 and <75%)”. Further, the IC50 on CRBN/DDB1 was 50 to 500 nM.

Regarding `O=C1CC[C@H](N2Cc3c(ccc4c3OCC43CCN(CC4CCC5(CC4)CN(c4ncc([C@H]6c7ccc(O)cc7CC[C@H]6c6ccccc6)cn4)C5)CC3)C2=O)C(=O)N1` [Compound A153, (S)-3-(1′-((2-(5-((1R,2R)-6-hydroxy-2-phenyl-1,2,3,4-tetrahydronaphthalen-1-yl)pyrimidin-2-yl)-2-azaspiro[3.5]nonan-7-yl)methyl)-6-oxo-6,8-dihydro-2H,7H-spiro[furo[2,3-e]isoindole-3,4′-piperidin]-7-yl)piperidine-2,6-dione], the Dmax on ER in MCF-7 cells (setting [1]) is < 25%. Besides, the DC50 at ER in MCF-7 cells (16 hrs treatment) was > 100 nM. Further, at CRBN/DDB1, the IC50 was < 50 nM.

For the molecule `O=C1CC[C@H](N2Cc3c(ccc4c3OCC43CCN(CC4CCC5(CC4)CN(c4ccc([C@H]6c7ccc(O)cc7CC[C@H]6c6ccccc6)cc4F)C5)CC3)C2=O)C(=O)N1` [Compound A160, (S)-3-(1′-((2-(2-fluoro-4-((1S, 2R)-6-hydroxy-2-phenyl-1,2,3,4-tetrahydronaphthalen-1-yl)phenyl)-2-azaspiro[3.5]nonan-7-yl)methyl)-6-oxo-6,8-dihydro-2H,7H-spiro[furo[2,3-c]isoindolc-3,4′-pipcridin]-7-yl)pipcridinc-2,6-dione], on ER in MCF-7 cells (setting [1]), the Dmax was in the range of 50 to 75%. In addition, the DC50 at ER in MCF-7 cells (16 hrs treatment) is 10 to 100 nM. In addition, on CRBN/DDB1, the IC50 is 50 to 500 nM.

Regarding “(S)-3-((3-fluoro-4-(1-((1-(2-fluoro-4-((1S,2S)-6-hydroxy-2-phenyl-1,2,3,4-tetrahydronaphthalen-1-yl)-5-methoxyphenyl)piperidin-4-yl)methyl)piperidin-4-yl)phenyl)amino)piperidine-2,6-dione [Compound A120]”, at ER in MCF-7 cells (16 hrs treatment), the DC50 lay in the range of 10 to 100 nM and the “MCF7 Dmax” value is listed as “C (“C”: 25-50%)”. At CRBN/DDB1, the IC50 fell in the range of 500 to 5000 nM.

Values taken from patent publication US20260028354A1, “TETRAHYDRONAPHTHALENE DERIVATIVES AS ESTROGEN RECEPTOR DEGRADERS” (REGENT OF THE UNIVERSITY OF MICHIGAN, priority 2022, published 2026).
